{"source": "the supplement of paper PMC10307832", "data": [{"compound": "COc1cccc2c1C(=O)c1c(O)c3c(c(O)c1C2=O)C[C@@](O)(C(=O)CO)C[C@@H]3O[C@H]1C[C@H](N)[C@H](O)[C@H](C)O1 [Doxorubicin] + N=C(N)NC(=N)NCCc1ccccc1 [Phenformin] (partner 250 µM)", "experiment": "relative viability (nuclei count vs DMSO), 5 days (fraction); higher = more cells survive", "conditions": "first compound 0.1 µM", "how_it_was_run": "(§1)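 One day after seeding in 1536-well plates, lung cancer cell lines were dosed by pin tool. Dosing was either single-drug or a fixed anchor-drug dose plus five library-drug doses (not always all listed) in √10 steps. After 5 days, nuclei were stained in one fix-and-stain step and counted on 4× images, and relative viability is the nuclei count of treated wells over that of vehicle wells, given as the median of duplicate plates.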", "values": [{"cell line": "NCI-H322M", "relative viability": 0.385}, {"cell line": "HCC-78", "relative viability": 0.625}, {"cell line": "A549", "relative viability": 0.0431}, {"cell line": "NCI-H522", "relative viability": 0.645}, {"cell line": "LXF-289", "relative viability": 0.495}, {"cell line": "BEN", "relative viability": 0.283}, {"cell line": "NCI-H1563", "relative viability": 0.501}]}, {"compound": "COC1=C(C=C(C=C1)C2=CC3=NC=CN3C(=N2)NC4=C(C=CC=N4)C(=O)N)OC [BAY61-3606] + COc1cccc2cc(-c3nc([C@H]4CC[C@H](C(=O)O)CC4)n4ncnc(N)c34)[nH]c12 [OSI-027] (partner 0.5 µM)", "experiment": "relative viability (nuclei count vs DMSO), 5 days (fraction); higher = more cells survive", "conditions": "first compound 0.02 µM", "how_it_was_run": "as §1", "values": [{"cell line": "NCI-H2342", "relative viability": 0.705}, {"cell line": "NCI-H1623", "relative viability": 0.417}, {"cell line": "RERF-LC-KJ", "relative viability": 0.605}, {"cell line": "NCI-H1651", "relative viability": 0.702}, {"cell line": "NCI-H1734", "relative viability": 0.605}, {"cell line": "NCI-H2009", "relative viability": 0.754}, {"cell line": "NCI-H596", "relative viability": 0.699}, {"cell line": "SK-LU-1", "relative viability": 0.357}, {"cell line": "SW 1573", "relative viability": 0.613}, {"cell line": "LCLC-97TM1", "relative viability": 0.515}, {"cell line": "NCI-H661", "relative viability": 0.707}, {"cell line": "NCI-H2228", "relative viability": 0.885}, {"cell line": "EMC-BAC-2", "relative viability": 0.391}, {"cell line": "NCI-H2087", "relative viability": 0.47}, {"cell line": "HCC-44", "relative viability": 0.562}, {"cell line": "NCI-H727", "relative viability": 0.604}, {"cell line": "LK-2", "relative viability": 0.197}, {"cell line": "NCI-H2126", "relative viability": 0.729}, {"cell line": "NCI-H1648", "relative viability": 0.219}, {"cell line": "NCI-H1793", "relative viability": 0.259}, {"cell line": "H3255", "relative viability": 0.529}, {"cell line": "COR-L23", "relative viability": 0.764}, {"cell line": "COR-L 105", "relative viability": 0.843}, {"cell line": "LC-2-ad", "relative viability": 0.853}, {"cell line": "LU99A", "relative viability": 0.315}, {"cell line": "ChaGo-K-1", "relative viability": 0.537}, {"cell line": "NCI-H358", "relative viability": 0.918}, {"cell line": "NCI-H322M", "relative viability": 0.53}, {"cell line": "HCC-78", "relative viability": 0.411}, {"cell line": "NCI-H522", "relative viability": 0.653}, {"cell line": "LXF-289", "relative viability": 0.938}, {"cell line": "BEN", "relative viability": 0.336}, {"cell line": "NCI-H1563", "relative viability": 0.742}]}, {"compound": "COC1=C(C=C(C=C1)C2=CC3=NC=CN3C(=N2)NC4=C(C=CC=N4)C(=O)N)OC [BAY61-3606] + COc1cccc2cc(-c3nc([C@H]4CC[C@H](C(=O)O)CC4)n4ncnc(N)c34)[nH]c12 [OSI-027] (partner 0.5 µM)", "experiment": "relative viability (nuclei count vs DMSO), 5 days (fraction); higher = more cells survive", "conditions": "first compound 0.06325 µM", "how_it_was_run": "as §1", "values": [{"cell line": "NCI-H2342", "relative viability": 0.609}, {"cell line": "NCI-H1623", "relative viability": 0.427}, {"cell line": "RERF-LC-KJ", "relative viability": 0.533}, {"cell line": "NCI-H1651", "relative viability": 0.627}, {"cell line": "NCI-H1734", "relative viability": 0.523}, {"cell line": "NCI-H2009", "relative viability": 0.686}, {"cell line": "NCI-H596", "relative viability": 0.535}, {"cell line": "SK-LU-1", "relative viability": 0.366}, {"cell line": "SW 1573", "relative viability": 0.552}, {"cell line": "LCLC-97TM1", "relative viability": 0.608}, {"cell line": "NCI-H661", "relative viability": 0.742}, {"cell line": "NCI-H2228", "relative viability": 0.451}, {"cell line": "EMC-BAC-2", "relative viability": 0.391}, {"cell line": "NCI-H2087", "relative viability": 0.577}, {"cell line": "NCI-H727", "relative viability": 0.559}, {"cell line": "LK-2", "relative viability": 0.16}, {"cell line": "NCI-H2126", "relative viability": 0.616}, {"cell line": "NCI-H1648", "relative viability": 0.257}, {"cell line": "NCI-H1793", "relative viability": 0.276}, {"cell line": "H3255", "relative viability": 0.549}, {"cell line": "COR-L23", "relative viability": 0.806}, {"cell line": "COR-L 105", "relative viability": 0.645}, {"cell line": "LC-2-ad", "relative viability": 0.772}, {"cell line": "LU99A", "relative viability": 0.271}, {"cell line": "ChaGo-K-1", "relative viability": 0.533}, {"cell line": "NCI-H358", "relative viability": 0.722}, {"cell line": "NCI-H322M", "relative viability": 0.592}, {"cell line": "HCC-78", "relative viability": 0.393}, {"cell line": "NCI-H522", "relative viability": 0.646}, {"cell line": "LXF-289", "relative viability": 0.834}, {"cell line": "BEN", "relative viability": 0.316}, {"cell line": "NCI-H1563", "relative viability": 0.764}]}, {"compound": "COC1=C(C=C(C=C1)C2=CC3=NC=CN3C(=N2)NC4=C(C=CC=N4)C(=O)N)OC [BAY61-3606] + COc1cccc2cc(-c3nc([C@H]4CC[C@H](C(=O)O)CC4)n4ncnc(N)c34)[nH]c12 [OSI-027] (partner 0.5 µM)", "experiment": "relative viability (nuclei count vs DMSO), 5 days (fraction); higher = more cells survive", "conditions": "first compound 0.2 µM", "how_it_was_run": "as §1", "values": [{"cell line": "NCI-H2342", "relative viability": 0.596}, {"cell line": "NCI-H1623", "relative viability": 0.504}, {"cell line": "RERF-LC-KJ", "relative viability": 0.573}, {"cell line": "NCI-H1651", "relative viability": 0.664}, {"cell line": "NCI-H1734", "relative viability": 0.529}, {"cell line": "NCI-H2009", "relative viability": 0.681}, {"cell line": "NCI-H596", "relative viability": 0.647}, {"cell line": "SK-LU-1", "relative viability": 0.317}, {"cell line": "SW 1573", "relative viability": 0.51}, {"cell line": "LCLC-97TM1", "relative viability": 0.581}, {"cell line": "NCI-H661", "relative viability": 0.734}, {"cell line": "NCI-H2228", "relative viability": 0.594}, {"cell line": "EMC-BAC-2", "relative viability": 0.356}, {"cell line": "NCI-H2087", "relative viability": 0.557}, {"cell line": "HCC-44", "relative viability": 0.474}, {"cell line": "NCI-H727", "relative viability": 0.71}, {"cell line": "LK-2", "relative viability": 0.22}, {"cell line": "NCI-H2126", "relative viability": 0.751}, {"cell line": "NCI-H1648", "relative viability": 0.263}, {"cell line": "H3255", "relative viability": 0.642}, {"cell line": "COR-L23", "relative viability": 0.712}, {"cell line": "COR-L 105", "relative viability": 0.726}, {"cell line": "LC-2-ad", "relative viability": 0.8}, {"cell line": "LU99A", "relative viability": 0.298}, {"cell line": "ChaGo-K-1", "relative viability": 0.519}, {"cell line": "NCI-H358", "relative viability": 0.781}, {"cell line": "NCI-H322M", "relative viability": 0.562}, {"cell line": "HCC-78", "relative viability": 0.404}, {"cell line": "NCI-H522", "relative viability": 0.686}, {"cell line": "LXF-289", "relative viability": 0.687}, {"cell line": "BEN", "relative viability": 0.316}, {"cell line": "NCI-H1563", "relative viability": 0.699}]}, {"compound": "COC1=C(C=C(C=C1)C2=CC3=NC=CN3C(=N2)NC4=C(C=CC=N4)C(=O)N)OC [BAY61-3606] + COc1cccc2cc(-c3nc([C@H]4CC[C@H](C(=O)O)CC4)n4ncnc(N)c34)[nH]c12 [OSI-027] (partner 0.5 µM)", "experiment": "relative viability (nuclei count vs DMSO), 5 days (fraction); higher = more cells survive", "conditions": "first compound 0.6325 µM", "how_it_was_run": "as §1", "values": [{"cell line": "NCI-H2342", "relative viability": 0.682}, {"cell line": "NCI-H1623", "relative viability": 0.418}, {"cell line": "RERF-LC-KJ", "relative viability": 0.621}, {"cell line": "NCI-H1651", "relative viability": 0.637}, {"cell line": "NCI-H1734", "relative viability": 0.542}, {"cell line": "NCI-H2009", "relative viability": 0.597}, {"cell line": "NCI-H596", "relative viability": 0.711}, {"cell line": "SK-LU-1", "relative viability": 0.285}, {"cell line": "SW 1573", "relative viability": 0.63}, {"cell line": "LCLC-97TM1", "relative viability": 0.423}, {"cell line": "NCI-H661", "relative viability": 0.699}, {"cell line": "NCI-H2228", "relative viability": 0.495}, {"cell line": "EMC-BAC-2", "relative viability": 0.363}, {"cell line": "NCI-H2087", "relative viability": 0.555}, {"cell line": "HCC-44", "relative viability": 0.583}, {"cell line": "NCI-H727", "relative viability": 0.688}, {"cell line": "LK-2", "relative viability": 0.231}, {"cell line": "NCI-H2126", "relative viability": 0.695}, {"cell line": "NCI-H1648", "relative viability": 0.229}, {"cell line": "NCI-H1793", "relative viability": 0.255}, {"cell line": "H3255", "relative viability": 0.736}, {"cell line": "COR-L23", "relative viability": 0.778}, {"cell line": "COR-L 105", "relative viability": 0.704}, {"cell line": "LC-2-ad", "relative viability": 0.997}, {"cell line": "LU99A", "relative viability": 0.26}, {"cell line": "ChaGo-K-1", "relative viability": 0.495}, {"cell line": "NCI-H358", "relative viability": 0.677}, {"cell line": "NCI-H322M", "relative viability": 0.582}, {"cell line": "HCC-78", "relative viability": 0.351}, {"cell line": "NCI-H522", "relative viability": 0.717}, {"cell line": "LXF-289", "relative viability": 0.888}, {"cell line": "BEN", "relative viability": 0.285}, {"cell line": "NCI-H1563", "relative viability": 0.71}]}, {"compound": "COC1=C(C=C(C=C1)C2=CC3=NC=CN3C(=N2)NC4=C(C=CC=N4)C(=O)N)OC [BAY61-3606] + COc1cccc2cc(-c3nc([C@H]4CC[C@H](C(=O)O)CC4)n4ncnc(N)c34)[nH]c12 [OSI-027] (partner 0.5 µM)", "experiment": "relative viability (nuclei count vs DMSO), 5 days (fraction); higher = more cells survive", "conditions": "first compound 2 µM", "how_it_was_run": "as §1", "values": [{"cell line": "NCI-H2342", "relative viability": 0.664}, {"cell line": "NCI-H1623", "relative viability": 0.412}, {"cell line": "RERF-LC-KJ", "relative viability": 0.379}, {"cell line": "NCI-H1651", "relative viability": 0.499}, {"cell line": "NCI-H1734", "relative viability": 0.372}, {"cell line": "NCI-H2009", "relative viability": 0.348}, {"cell line": "NCI-H596", "relative viability": 0.462}, {"cell line": "SK-LU-1", "relative viability": 0.227}, {"cell line": "SW 1573", "relative viability": 0.325}, {"cell line": "LCLC-97TM1", "relative viability": 0.392}, {"cell line": "NCI-H661", "relative viability": 0.505}, {"cell line": "NCI-H2228", "relative viability": 0.293}, {"cell line": "EMC-BAC-2", "relative viability": 0.318}, {"cell line": "NCI-H2087", "relative viability": 0.417}, {"cell line": "HCC-44", "relative viability": 0.548}, {"cell line": "NCI-H727", "relative viability": 0.513}, {"cell line": "LK-2", "relative viability": 0.185}, {"cell line": "NCI-H2126", "relative viability": 0.655}, {"cell line": "NCI-H1648", "relative viability": 0.217}, {"cell line": "NCI-H1793", "relative viability": 0.235}, {"cell line": "H3255", "relative viability": 0.546}, {"cell line": "COR-L23", "relative viability": 0.496}]}]}
